Peptide text beside a SMILES is read from it. * marks the point of attachment. Cbz = O=C(OCc1ccccc1)*; OtBu = CC(C)(C)O*
Key:
[1] = system: NotchΔE-EGFP; test: Western blot of NotchΔE-EGFP processing in HeLa NotchΔE-EGFP lysates; format: cell-based; details: 10 μM, 18 h
Protocol: FIG. 2: Selected compounds from final hit list show distinct phenotypes. Hela NotchΔE-EGFP cells were incubated with compounds (10 μM) for 18 h, fixed and analyzed by fluorescence microscopy (a) or lysed, separated by SDS-PAGE, blotted and probed with antibodies against GFP and NICD (b). Tubulin served as loading control. c) Quantitation of NotchΔE-EGFP accumulation and NICD production from 3-4 experiments as shown in (b). […] Arrows, plasma membrane; scalebar, 10 μm.
Next, lysates of HeLa NotchΔE-EGFP cells treated with compounds were analyzed for processing of NotchΔE-EGFP by Western blot using antibodies specific for EGFP and NICD (FIG. 2b, c). The GFP antibody detected both the uncleaved reporter NotchΔE-EGFP and the γ-secretase product NICD-EGFP, whereas the NICD-specific antibody specifically detected cleaved NICD-EGFP. […] The observed effects were not cell type specific, as they were also apparent in U2OS cells stably expressing NotchΔE-EGFP (FIG. 9).

[2] = system: APP; test: APP processing in HEK293 cells stably expressing APPswe; format: cell-based; details: 10 μM, 16 h
Protocol: (§1) FIG. 3: Effect of compounds on NotchΔE-EGFP, APP and Klotho trafficking and processing. a) HEK293 stably expressing APPswe or Klotho (KI) were incubated with DAPT or compounds (10 μM) for 16 h. Media were collected, cells lysed and both assayed by Western blotting using indicated antibodies. m, mature; im, immature; s, shedded ectodomain; CTF, C-terminal fragment. b) Membranes from HeLa-NotchΔE-EGFP and APPswe cells were isolated and subjected to a γ-secretase in vitro assay in the presence of DAPT or compounds as indicated. NICD and AICD were detected by Western Blotting using antibodies against the C-terminus of APP (top) or antibodies specific for NICD (bottom). c) Quantitation from 5 independent experiments.
To test if the compounds that affected NotchΔE-EGFP processing also affected APP processing, HEK293 cells were used that stably expressed APPswe, a mutated APP that yields robust amounts of Aβ^18. […] All other compounds had no effect on APPCTF or Aβ.
APP, APPs, APPCTF and Aβ detection was as described before^54 using antibodies 22C11 for APP and APPs, 6687 for APPCTF and 3552 and 2D8 for Aβ. Klotho was detected as described in Bloch et al.^20. Chemoluminescence was quantified on a LAS-4000 (Fuji) with MultiGauge software.

[3] = system: γ-secretase; test: In vitro γ-secretase assay with isolated membranes; format: biochemical; details: 37° C.
Protocol: as §1
To test whether FLI-06 affected other membrane proteins, Klotho, a type I protein processed like APP and Notch^20, was analyzed. […] To analyze γ-secretase activity, in vitro assays using isolated membranes were performed (FIG. 3b, c). Production of NICD-EGFP and AICD (APP intracellular domain) were assayed. Both were produced in vitro at 37° C. but not at 4° C., and their production was inhibited by DAPT.
For assaying AICD formation, membranes of HEK293 cells stably expressing APP with the Swedish mutation were isolated and incubated for 4 h at 37° C. according to Sastre et al.^52. For assaying NICD formation, membranes from HeLa NotchΔE-EGFP cells were mixed with membranes from HeLa NotchΔE-EGFP cells that were pre-treated with 10 μM DAPT overnight to enrich substrate. After incubation samples were loaded onto either 8% SDS-PA gels (NICD) or 10-20% Tris-Tricine gels (AICD), blotted and probed with cleaved-Notch antibody or antibody 6687 against APP C-terminus^53. Chemoluminescence was quantified on a LAS-4000 (Fuji) with MultiGauge software.

Compound | NotchΔE-EGFP level (GFP antibody) [1] | APPs (shedded ectodomain) secretion [2] | NICD-EGFP and AICD production in isolated membranes [3] | NICD-EGFP production [1] | APPCTF in cells [2] | Aβ in the cell supernatant [2] | glycosylation pattern of APP [2]
CC(C)CC(NC(=O)C(Cc1ccccc1)NC(=O)C1CCCN1C(=O)OCc1ccccc1)C(=O)OC(C)(C)C (stereo not drawn) [FLI-19] (Cbz-Pro-Phe-Leu-OtBu; configuration not given here) | accumulation of NotchΔE-EGFP | reduced APPs secretion | did not affect γ-secretase in isolated membranes |  |  |  | 
Cc1ccc(NC(=O)C(NS(=O)(=O)c2cccc3nsnc23)C(C)C)nc1 (centres unmarked) [FLI-15] | accumulation of NotchΔE-EGFP |  | clearly reduced NICD-EGFP and AICD production | decreased NICD-EGFP production | accumulated | weakly reduced | 
CC1=C(C(=O)OC2CCCCC2)C(c2ccc([N+](=O)[O-])cc2)C2=C(CC(C)(C)CC2=O)N1 (centres unmarked) [FLI-06, Cyclohexyl 4-(4′-nitrophenyl)-2,7,7-trimethyl-5-oxo-1,4,5,6,7,8-hexahydroquinoline-3-carboxylate] | accumulation of NotchΔE-EGFP | abolished the shedding of APPs | did not affect γ-secretase in isolated membranes | decreased NICD-EGFP production | no APPCTF accumulated | essentially disappeared | changed the glycosylation pattern of APP
Cn1c2ccccc2c2c(C(=O)N3CCN(Cc4ccc5c(c4)OCO5)CC3)cn(C3CCCC3)c(=O)c21 [FLI-14] | accumulation of NotchΔE-EGFP |  | did not affect γ-secretase in isolated membranes | decreased NICD-EGFP production | accumulated | essentially disappeared | 
CC(=O)Nc1ccc2nc(NC(=O)CC34CC5CC(CC(C5)C3)C4)sc2c1 [FLI-20] | accumulation of NotchΔE-EGFP | reduced APPs secretion | clearly reduced NICD-EGFP and AICD production | decreased NICD-EGFP production | accumulated | weakly reduced | 

— patent US9828344B2, “Inhibitors of the notch signaling pathway and secretion for use in medicine” (Leibniz-Institut für Altersforschung Fritz-Lipmann-Institut …, priority 2012, dated 2017)
